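Values below derive from 48-hour exposures of cells grown in 96-well plates, with endpoints linearly interpolated between the two concentrations bracketing the appropriate inhibition level. Definition used: TGI = concentration required for complete inhibition of growth.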
What was measured:
Assay in all cases: NCI-60 cell line screen, 48 h
MALME-3M melanoma = tested on: MALME-3M melanoma
MOLT-4 leukemia = tested on: MOLT-4 leukemia
SW-620 colon = tested on: SW-620 colon
NCI-H522 lung = tested on: NCI-H522 lung
K-562 leukemia = tested on: K-562 leukemia
A549 NSCLC = tested on: A549 NSCLC
CCRF-CEM leukemia = tested on: CCRF-CEM leukemia
MDA-MB-231 breast = tested on: MDA-MB-231 breast
OVCAR-3 ovarian = tested on: OVCAR-3 ovarian
OVCAR-4 ovarian = tested on: OVCAR-4 ovarian
ACHN renal = tested on: ACHN renal
NCI-H460 lung = tested on: NCI-H460 lung
DU-145 prostate = tested on: DU-145 prostate
NCI-H226 lung = tested on: NCI-H226 lung
UACC-257 melanoma = tested on: UACC-257 melanoma
U251 CNS = tested on: U251 CNS
786-0 renal = tested on: 786-0 renal
OVCAR-5 ovarian = tested on: OVCAR-5 ovarian
MDA-N = tested on: MDA-N
CAKI-1 renal = tested on: CAKI-1 renal
UACC-62 melanoma = tested on: UACC-62 melanoma
A498 renal = tested on: A498 renal
IGROV1 ovarian = tested on: IGROV1 ovarian
RXF 393 renal = tested on: RXF 393 renal
SF-295 CNS = tested on: SF-295 CNS
LOX IMVI melanoma = tested on: LOX IMVI melanoma
BT-549 breast = tested on: BT-549 breast
HOP-92 NSCLC = tested on: HOP-92 NSCLC
OVCAR-8 ovarian = tested on: OVCAR-8 ovarian
SF-539 CNS = tested on: SF-539 CNS
M14 melanoma = tested on: M14 melanoma
HCT-15 colon = tested on: HCT-15 colon
SK-MEL-5 melanoma = tested on: SK-MEL-5 melanoma
HL-60(TB) leukemia = tested on: HL-60(TB) leukemia
PC-3 prostate = tested on: PC-3 prostate
SNB-75 CNS = tested on: SNB-75 CNS
EKVX NSCLC = tested on: EKVX NSCLC
SK-OV-3 ovarian = tested on: SK-OV-3 ovarian
NCI-H23 lung = tested on: NCI-H23 lung
RPMI-8226 leukemia = tested on: RPMI-8226 leukemia
SN12C renal = tested on: SN12C renal
NCI/ADR-RES ovarian = tested on: NCI/ADR-RES ovarian
MDA-MB-435 = tested on: MDA-MB-435
TK-10 renal = tested on: TK-10 renal
HCT-116 colon = tested on: HCT-116 colon
SK-MEL-2 melanoma = tested on: SK-MEL-2 melanoma
UO-31 renal = tested on: UO-31 renal
SR leukemia = tested on: SR leukemia
COLO 205 colon = tested on: COLO 205 colon
MCF7 breast = tested on: MCF7 breast
HCC-2998 colon = tested on: HCC-2998 colon
SK-MEL-28 melanoma = tested on: SK-MEL-28 melanoma
SNB-19 CNS = tested on: SNB-19 CNS
HOP-62 NSCLC = tested on: HOP-62 NSCLC
SF-268 CNS = tested on: SF-268 CNS
HT29 colon = tested on: HT29 colon
KM12 colon = tested on: KM12 colon

Work on `N#Cc1c(-c2ccc(Cl)cc2)c(C#N)c(=O)n(NS(=O)(=O)c2ccccc2)c1S` yielded a TGI (MALME-3M melanoma) greater than 100 µM, a TGI (MOLT-4 leukemia) greater than 100 µM and a TGI (SW-620 colon) of 69.9 µM. The TGI (NCI-H522 lung) was 47.4 µM, the TGI (K-562 leukemia) was greater than 100 µM and the TGI (A549 NSCLC) was greater than 100 µM. For the same compound, the TGI (CCRF-CEM leukemia) was greater than 100 µM, the TGI (MDA-MB-231 breast) was 75.2 µM and the TGI (OVCAR-3 ovarian) was greater than 100 µM. The TGI (OVCAR-4 ovarian) was greater than 100 µM, the TGI (ACHN renal) was 85.3 µM and the TGI (NCI-H460 lung) was 46 µM. It also gave a TGI (DU-145 prostate) greater than 100 µM, a TGI (NCI-H226 lung) of 77.1 µM and a TGI (UACC-257 melanoma) greater than 100 µM. For the same compound, the TGI (U251 CNS) was 71.9 µM, the TGI (786-0 renal) was 34.6 µM and the TGI (OVCAR-5 ovarian) was greater than 100 µM. It also gave a TGI (MDA-N) of 67.3 µM, a TGI (CAKI-1 renal) of 66.6 µM and a TGI (UACC-62 melanoma) of 58.3 µM. The TGI (A498 renal) was greater than 100 µM, the TGI (IGROV1 ovarian) was 65.5 µM and the TGI (RXF 393 renal) was greater than 100 µM. For the same compound, the TGI (SF-295 CNS) was greater than 100 µM, the TGI (LOX IMVI melanoma) was 50.6 µM and the TGI (BT-549 breast) was 66.1 µM. For the same compound, the TGI (HOP-92 NSCLC) was greater than 100 µM, the TGI (OVCAR-8 ovarian) was 65 µM and the TGI (SF-539 CNS) was 42.1 µM. The TGI (M14 melanoma) was greater than 100 µM, the TGI (HCT-15 colon) was 49.6 µM and the TGI (SK-MEL-5 melanoma) was 33.3 µM. For the same compound, the TGI (HL-60(TB) leukemia) was 60 µM, the TGI (PC-3 prostate) was greater than 100 µM and the TGI (SNB-75 CNS) was greater than 100 µM. It also gave a TGI (EKVX NSCLC) greater than 100 µM, a TGI (SK-OV-3 ovarian) greater than 100 µM and a TGI (NCI-H23 lung) greater than 100 µM. It also gave a TGI (RPMI-8226 leukemia) of 75.6 µM, a TGI (SN12C renal) of 78 µM and a TGI (NCI/ADR-RES ovarian) of 74.2 µM. For the same compound, the TGI (MDA-MB-435) was 65 µM, the TGI (TK-10 renal) was 70.6 µM and the TGI (HCT-116 colon) was 91.2 µM. For the same compound, the TGI (SK-MEL-2 melanoma) was greater than 100 µM, the TGI (UO-31 renal) was 45.3 µM and the TGI (SR leukemia) was 56.5 µM. It also gave a TGI (COLO 205 colon) greater than 100 µM and a TGI (MCF7 breast) greater than 100 µM.
Compound `C/C(=N\Nc1ccccc1Br)c1cccc(/C(C)=N/Nc2ccccc2Br)n1` has a TGI (MALME-3M melanoma) greater than 100 µM, a TGI (MOLT-4 leukemia) greater than 100 µM and a TGI (SW-620 colon) greater than 100 µM. The TGI (K-562 leukemia) was greater than 100 µM, the TGI (A549 NSCLC) was greater than 100 µM and the TGI (CCRF-CEM leukemia) was greater than 100 µM. It also gave a TGI (HCC-2998 colon) greater than 100 µM, a TGI (MDA-MB-231 breast) greater than 100 µM and a TGI (OVCAR-3 ovarian) greater than 100 µM. It also gave a TGI (OVCAR-4 ovarian) greater than 100 µM, a TGI (SK-MEL-28 melanoma) greater than 100 µM and a TGI (ACHN renal) greater than 100 µM. For the same compound, the TGI (NCI-H460 lung) was greater than 100 µM, the TGI (DU-145 prostate) was greater than 100 µM and the TGI (NCI-H226 lung) was greater than 100 µM. The TGI (UACC-257 melanoma) was greater than 100 µM, the TGI (U251 CNS) was greater than 100 µM and the TGI (786-0 renal) was greater than 100 µM. For the same compound, the TGI (OVCAR-5 ovarian) was greater than 100 µM, the TGI (MDA-N) was greater than 100 µM and the TGI (CAKI-1 renal) was greater than 100 µM. It also gave a TGI (SNB-19 CNS) greater than 100 µM, a TGI (HOP-62 NSCLC) greater than 100 µM and a TGI (A498 renal) greater than 100 µM. It also gave a TGI (IGROV1 ovarian) greater than 100 µM, a TGI (RXF 393 renal) of 42.4 µM and a TGI (SF-295 CNS) greater than 100 µM. It also gave a TGI (LOX IMVI melanoma) greater than 100 µM, a TGI (BT-549 breast) greater than 100 µM and a TGI (HOP-92 NSCLC) greater than 100 µM. For the same compound, the TGI (OVCAR-8 ovarian) was greater than 100 µM, the TGI (SF-539 CNS) was greater than 100 µM and the TGI (M14 melanoma) was greater than 100 µM. For the same compound, the TGI (HCT-15 colon) was greater than 100 µM, the TGI (SF-268 CNS) was greater than 100 µM and the TGI (SK-MEL-5 melanoma) was greater than 100 µM. It also gave a TGI (HL-60(TB) leukemia) greater than 100 µM, a TGI (PC-3 prostate) greater than 100 µM and a TGI (SNB-75 CNS) of 36.8 µM. It also gave a TGI (EKVX NSCLC) greater than 100 µM, a TGI (NCI-H23 lung) greater than 100 µM and a TGI (RPMI-8226 leukemia) greater than 100 µM. It also gave a TGI (SN12C renal) greater than 100 µM, a TGI (NCI/ADR-RES ovarian) greater than 100 µM and a TGI (MDA-MB-435) greater than 100 µM. For the same compound, the TGI (TK-10 renal) was greater than 100 µM, the TGI (HT29 colon) was greater than 100 µM and the TGI (HCT-116 colon) was greater than 100 µM. The TGI (SK-MEL-2 melanoma) was greater than 100 µM, the TGI (UO-31 renal) was greater than 100 µM and the TGI (SR leukemia) was greater than 100 µM. The TGI (COLO 205 colon) was greater than 100 µM, the TGI (MCF7 breast) was greater than 100 µM and the TGI (KM12 colon) was greater than 100 µM.
